Laboratory results published in patent EP0427799B1, “METHOD AND COMPOUNDS FOR AICA RIBOSIDE DELIVERY AND FOR LOWERING BLOOD GLUCOSE” (GENSIA, INC., priority 1989, dated 1990).
pIC50, pKi: −log10 of the molar value. One block for each compound: values may come before it.

Experiments:
adenosine kinase = adenosine kinase (Homo sapiens, UniProt P55263); assay: Inhibition of adenosine kinase; type: biochemical
plasma glucose = assay: Plasma glucose after adenosine and adenosine receptor agonists I.P.; type: in vivo; conditions: administered I.P. in either rats or mice
Description: This leads to investigation of the mechanism of AICA riboside induced hypoglycemia. […] This adenosine induced hyperglycemia is reversed by adenosine receptor antagonists (theophylline and sulphophenyltheophylline). Additionally, the AICA riboside-induced hypoglycemia is not blocked by theophylline. It is therefore concluded that the AICA riboside effect on plasma glucose is not mediated by adenosine. […] (See Figure 13).

cell culture = assay: Adenosine concentrations in cell culture during net ATP breakdown; type: cell-based
Description: (§1) We have expanded this work on AICA riboside and S-AICA riboside homocysteine to examine other known adenosine kinase inhibitors as adenosine releasing agents. The flux (substrate made into product per unit of time), through adenosine kinase under physiological conditions is low; substrate metabolism is low partly due to low substrate availability. However, during net ATP catabolism, substrate availability (i.e. adenosine concentration) dramatically increases. […] (See Figure 15).

ischemic heart tissue = assay: Adenosine, AICA riboside and ZMP levels in ischemic heart tissue; type: in vivo, rats; conditions: for adenosine concentrations during net ATP breakdown: rat heart ischemia model
Experimental: Prodrug compounds of the present invention and AICA riboside were tested for their activity in enhancing the production of adenosine and increasing production of AICA riboside from ZMP in ischemic heart tissue in rats.
Samples of heart tissue after ischemia were analyzed for nucleoside and nucleotide levels. Samples were measured for adenosine, AICA riboside and ZMP concentrations by HPLC.

HTL-induced seizures = assay: Inhibition of HTL-induced seizures; type: in vivo; conditions: mice
Experimental: Compounds were tested for their activities in inhibiting HTL-induced seizures in rats.
Animals used were male Swiss Webster mice weighing 21-30 grams (Charles River Breeding Labs, Wilmington, MA). All animals were adapted to the laboratory for at least 5 days prior to use.
All solutions to be injected were prepared as a single injection cocktail at a concentration such that 1 ml per 100 g of body weight yielded the desired dose. The solutions were compounded as follows: Homocysteine Thiolactone - HCl (HTL-HCl) (Sigma Chemical Company, St. Louis, MO) was dissolved in distilled water and the pH adjusted to 6.7 with NaOH. Pentylenetetrazol (PTZ) was dissolved in 0.9% saline. Prodrug compounds or AICA riboside (Sigma) when used alone was dissolved in distilled water. All solutions containing Mioflazine (Janssen Pharmaceuticals) were prepared at a final DMSO concentration of 10-15% as were the Dipyridamole (Sigma) solutions. N-ethylcarboxamide adenosine, NECA (Sigma) and Flunitrazepam (Hoffman La Roche) injections were prepared in a final ethanol concentration of 0.2%. In all cases carrier control solutions of carrier were injected that were matched for both tonicity and solvents to the test solutions. All test and control solutions were injected via a bolus, I.P., using a 27 gauge needle. HTL and PTZ were injected subcutaneously in the upper back of the animal. […]

[1] = Blood pressure and heart rate in rats; type: in vivo
Description: as §1

PTZ induced seizures = assay: Inhibition of PTZ-induced seizures; type: in vivo; conditions: mice
Experimental: All solutions to be injected were prepared as a single injection cocktail at a concentration such that 1 ml per 100 g of body weight yielded the desired dose. The solutions were compounded as follows: Homocysteine Thiolactone - HCl (HTL-HCl) (Sigma Chemical Company, St. Louis, MO) was dissolved in distilled water and the pH adjusted to 6.7 with NaOH. Pentylenetetrazol (PTZ) was dissolved in 0.9% saline. Prodrug compounds or AICA riboside (Sigma) when used alone was dissolved in distilled water. All solutions containing Mioflazine (Janssen Pharmaceuticals) were prepared at a final DMSO concentration of 10-15% as were the Dipyridamole (Sigma) solutions. N-ethylcarboxamide adenosine, NECA (Sigma) and Flunitrazepam (Hoffman La Roche) injections were prepared in a final ethanol concentration of 0.2%. In all cases carrier control solutions of carrier were injected that were matched for both tonicity and solvents to the test solutions. All test and control solutions were injected via a bolus, I.P., using a 27 gauge needle. HTL and PTZ were injected subcutaneously in the upper back of the animal.
Animals were preinjected with either control solution containing only carrier or test solution containing candidate compound (prodrug or AICA riboside) and carrier in groups of 6-8 per test solution or control. […]

in vivo = assay: in vivo; design: species or system dogs; conditions: dog; for AUC / Cmax / Tmax: po
Experimental: The bioavailability of AICA riboside after oral administration of either AICA riboside or one of the AICA riboside prodrugs of the present invention was evaluated in dogs. Plasma concentrations of AICA riboside and intact prodrug were measured using HPLC. (See Dixon, R., et al., Res. Commun. Chem. Path. Pharm. 65:405-408 (1989)). Bioavailability of AICA riboside was evaluated in terms of the time required to reach maximum plasma concentration (Tmax), the maximum concentration achieved (Cmax) and the area under the plasma concentration-time curve (AUC) from time zero to the last measurable plasma concentration. Absolute bioavailability (F%) was calculated by dividing the AUC for AICA riboside following oral administration of the prodrug (or AICA riboside itself) by the AUC following intravenous administration of an equivalent amount of AICA riboside (100% bioavailability).

blood glucose = conditions: several animal species, including man; cited from earlier work
[2] = Enhanced oral bioavailability: tissue ZMP levels after gavage; type: in vivo, Sprague-Dawley rats
Experimental: AICA riboside was administered to Sprague-Dawley rats at a dose of 250 mg/kg or 500 mg/kg, prodrug compounds of the present invention were administered at an equal molar dose.
At 15, 30, 60 and 120 minutes after gavage, the animals were sacrificed. The tissues were obtained and frozen immediately for nucleoside and nucleotide analysis. The tissue samples obtained were liver, heart, brain and whole blood. After initial freezing in liquid nitrogen, the tissue samples were extracted with trichloroacetic acid and neutralized with alamine freon. The tissue samples were evaluated by HPLC on a Whatman Partsil-10 (SAX) column for nucleosides and bases as described in Example 6. […] Tests were run with 8 rats.
Figures 5(a) and (b) show ZMP concentrations in rat liver at doses of a molar equivalent of 250 mg/kg and 500 mg/kg AICA riboside.

FDPase [3] = molecular target: T1, FDPase (Mus musculus, UniProt Q9QXD6); assay: Inhibition of liver FDPase by ZMP (IC50); type: biochemical; conditions: Mouse liver homogenate supernatant
T1 construct: Liver samples (from the indicated species) were homogenized; from tissue; host or cells: mouse liver homogenate, 45,000 x g supernatant passed over Sephadex G25
T1 sequence (Q9QXD6 2-338 limits assumed): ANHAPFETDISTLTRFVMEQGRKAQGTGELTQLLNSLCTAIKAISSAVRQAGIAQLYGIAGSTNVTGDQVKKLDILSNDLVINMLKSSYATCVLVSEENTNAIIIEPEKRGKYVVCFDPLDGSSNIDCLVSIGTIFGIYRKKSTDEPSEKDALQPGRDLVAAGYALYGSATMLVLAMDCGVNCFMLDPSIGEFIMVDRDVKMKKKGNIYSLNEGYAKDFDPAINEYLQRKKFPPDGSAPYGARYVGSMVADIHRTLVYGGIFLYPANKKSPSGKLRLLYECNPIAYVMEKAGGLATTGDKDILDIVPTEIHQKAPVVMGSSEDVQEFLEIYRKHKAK
Experimental: (§2) Liver samples (from the indicated species) were homogenized in 20 mM potassium phosphate buffer (pH 7.4) with 100 µM EDTA and 100 µM dithiothreitol. The liver homogenates were centrifuged at 45,000 x/g. The supernatants were passed over a sephadex G25 column and assayed for FDPase activity by the method of Marcus et al (Methods in Enzymology 90: 352-356 (1982)) in the presence of ZMP over a range of concentration and in the absence of ZMP. The IC50 value was defined as the concentration of ZMP, which inhibited 50 percent of the baseline FDPase activity under the assay conditions.

FDPase [4] = molecular target: T2, FDPase (Oryctolagus cuniculus, UniProt P00637); assay: Inhibition of liver FDPase by ZMP (IC50); type: biochemical; conditions: Rabbit liver homogenate supernatant
T2 construct: Liver samples (from the indicated species) were homogenized; from tissue; host or cells: rabbit liver homogenate, 45,000 x g supernatant passed over Sephadex G25
T2 sequence (P00637 2-338 limits assumed): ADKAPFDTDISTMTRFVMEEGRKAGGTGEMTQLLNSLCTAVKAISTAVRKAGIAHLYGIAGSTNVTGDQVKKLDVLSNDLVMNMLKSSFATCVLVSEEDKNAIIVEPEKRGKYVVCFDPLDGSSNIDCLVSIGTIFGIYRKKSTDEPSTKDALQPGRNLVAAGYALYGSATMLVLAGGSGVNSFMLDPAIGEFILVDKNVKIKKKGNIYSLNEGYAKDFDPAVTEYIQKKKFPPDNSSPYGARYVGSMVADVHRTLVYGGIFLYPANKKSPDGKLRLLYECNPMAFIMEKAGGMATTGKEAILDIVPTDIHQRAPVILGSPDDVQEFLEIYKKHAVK
Experimental: as §2

FDPase [5] = assay: Inhibition of liver FDPase by ZMP (IC50); type: biochemical
Experimental: as §2

FDPase [6] = molecular target: T3, FDPase (Homo sapiens, UniProt P09467); assay: Inhibition of liver FDPase by ZMP (IC50); type: biochemical; conditions: Human liver homogenate supernatant
T3 construct: Liver samples (from the indicated species) were homogenized; from tissue; host or cells: human liver homogenate, 45,000 x g supernatant passed over Sephadex G25
T3 sequence (P09467 2-338 limits assumed): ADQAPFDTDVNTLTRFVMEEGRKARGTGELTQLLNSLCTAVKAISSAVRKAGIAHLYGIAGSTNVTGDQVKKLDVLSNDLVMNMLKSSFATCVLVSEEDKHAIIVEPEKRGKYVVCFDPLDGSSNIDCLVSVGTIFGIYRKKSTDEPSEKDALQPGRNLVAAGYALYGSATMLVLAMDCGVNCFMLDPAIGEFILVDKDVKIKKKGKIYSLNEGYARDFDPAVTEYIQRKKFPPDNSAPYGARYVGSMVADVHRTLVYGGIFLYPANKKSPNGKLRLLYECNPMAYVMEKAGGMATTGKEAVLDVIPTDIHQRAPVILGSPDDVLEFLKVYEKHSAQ
Experimental: as §2

FDPase [7] = molecular target: T4, FDPase (Rattus norvegicus, UniProt P19112); assay: Inhibition of liver FDPase by ZMP (IC50); type: biochemical; conditions: Rat liver homogenate supernatant
T4 construct: Liver samples (from the indicated species) were homogenized; from tissue; host or cells: rat liver homogenate, 45,000 x g supernatant passed over Sephadex G25
T4 sequence (P19112 2-363 limits assumed): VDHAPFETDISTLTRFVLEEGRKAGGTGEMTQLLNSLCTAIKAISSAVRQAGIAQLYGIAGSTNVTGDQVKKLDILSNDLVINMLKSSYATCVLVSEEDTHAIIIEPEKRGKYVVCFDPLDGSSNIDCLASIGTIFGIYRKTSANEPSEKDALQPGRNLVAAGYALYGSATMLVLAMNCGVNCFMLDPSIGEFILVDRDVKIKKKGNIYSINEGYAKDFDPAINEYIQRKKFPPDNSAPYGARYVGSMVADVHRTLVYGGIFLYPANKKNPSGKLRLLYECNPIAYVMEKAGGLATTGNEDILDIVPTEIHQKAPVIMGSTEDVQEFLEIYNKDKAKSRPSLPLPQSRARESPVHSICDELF
Experimental: as §2

[8] = molecular target: T5, fructose diphosphatase ("FDPase") (Oryctolagus cuniculus, UniProt P00637); assay: Inhibition of fructose-1,6-diphosphatase from rabbit liver; type: biochemical
T5 construct: fructose -1,6- diphosphatase from rabbit liver (Sigma); purchased Sigma; host or cells: rabbit liver (enzyme isolated from tissue)
T5 sequence (P00637 2-338 limits assumed): as the sequence (P00637 2-338 limits assumed) above
Description: Activity was expressed as a velocity (rate of conversion of substrate).

Chain of adenosine kinase (P55263 whole entry, species assumed): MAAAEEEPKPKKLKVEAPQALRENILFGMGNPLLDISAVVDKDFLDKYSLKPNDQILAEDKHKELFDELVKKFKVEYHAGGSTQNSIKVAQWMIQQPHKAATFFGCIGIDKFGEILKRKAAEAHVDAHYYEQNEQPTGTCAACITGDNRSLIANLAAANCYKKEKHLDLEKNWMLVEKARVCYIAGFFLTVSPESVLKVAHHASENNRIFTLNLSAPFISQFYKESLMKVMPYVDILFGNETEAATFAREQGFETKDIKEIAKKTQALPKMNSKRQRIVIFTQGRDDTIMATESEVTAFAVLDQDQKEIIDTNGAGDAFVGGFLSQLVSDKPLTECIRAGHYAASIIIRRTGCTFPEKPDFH

- inhibition of adenosine kinase (adenosine kinase): more potent
SMILES: NC(=O)c1ncn(C2OC(CSCCC(N)C(=O)O)C(O)C2O)c1N (stereo not shown) [S-AICA riboside homocysteine, S-AICA ribosyl homocysteine]

SMILES: CCNC(=O)[C@H]1O[C@@H](n2cnc3c(N)ncnc32)[C@H](O)[C@@H]1O [N-ethylcarboxamide adenosine]
- increases in plasma glucose (hyperglycemia) (plasma glucose): 200-300%

SMILES: NC[C@H]1O[C@@H](n2cnc3c(N)ncnc32)[C@H](O)[C@@H]1O [5'-amino-5'-deoxyadenosine]
- adenosine concentrations during net ATP breakdown (cell culture): increased adenosine concentrations
- adenosine concentrations during net ATP breakdown (ischemic heart tissue): increased adenosine concentrations
- activity against HTL-induced seizures (HTL-induced seizures): observed to prevent HTL-induced seizure
- changes in blood pressure or heart rate [1]: did not produce any significant changes in blood pressure or heart rate
- activity against PTZ induced seizures (PTZ induced seizures): effective in blocking pentylene-tetrazole (PTZ) induced seizures

- F (in vivo): 44%
- AUC (in vivo): 3700 ng·h/mL
- Cmax (in vivo): 3200 ng/mL
- Tmax (in vivo): 1.0 h
SMILES: CC(C)(C)C(=O)OC[C@H]1O[C@@H](n2cnc(C(N)=O)c2N)[C@H](O)[C@@H]1O [Compound 11, 5'-pivalyl-AICA riboside]

SMILES: O=C[C@H](O)[C@H](O)[C@H](O)CO [Ribose]
- dose lowering blood glucose (blood glucose): about 1000 mg/kg

SMILES: Nc1ncnc2c1ncn2[C@@H]1O[C@H](CO)[C@@H](O)[C@H]1O [adenosine, 9-β-D-ribofuranosyladenine]
- increases in plasma glucose (hyperglycemia) (plasma glucose): 200-300%

SMILES: OC[C@H]1O[C@@H](n2cnc3c(NC4CCCCC4)ncnc32)[C@H](O)[C@@H]1O [cyclohexyladenosine]
- increases in plasma glucose (hyperglycemia) (plasma glucose): 200-300%

SMILES: Nc1ncnc2c1c(I)cn2[C@@H]1O[C@H](CO)[C@@H](O)[C@H]1O [5-iodotubercidin]
- adenosine concentrations during net ATP breakdown (cell culture): increased adenosine concentrations
- adenosine concentrations during net ATP breakdown (ischemic heart tissue): increased adenosine concentrations

- F (in vivo): 39%
- AUC (in vivo): 3200 ng·h/mL
- Cmax (in vivo): 2200 ng/mL
- Tmax (in vivo): 1.5 h
SMILES: CC(=O)OC[C@H]1O[C@@H](n2cnc(C(N)=O)c2N)[C@H](OC(C)=O)[C@@H]1OC(C)=O [Compound C1, 2',3',5'-triacetyl AICA riboside]

- ZMP accumulation in the liver relative to AICA riboside ([2]; after an equimolar gavage): 5 times
- oral bioavailability as evidenced by ZMP levels in liver, whole blood and heart ([2]; rats, gavage, dose equimolar to AICA riboside): increased oral bioavailability
- Tissue Concentration AICA Riboside (ischemic heart tissue; ischemic rat heart tissue, equimolar doses): 592 ± 55 nmol/g
SMILES: CC(C)COC(=O)O[C@H]1[C@@H](O)[C@H](n2cnc(C(N)=O)c2N)O[C@@H]1CO [Prodrug A, 5-amino-3'-(2-methyl-1-propoxycarbonyl)-1-β-D-ribofuranosyl-imidazole-4-carboxamideie]
- potency in enhancing adenosine production relative to AICA riboside (ischemic heart tissue; ischemic heart model, molar basis): about 30%
- Tissue Concentration Adenosine (ischemic heart tissue; ischemic rat heart tissue, Prodrug A at dose equimolar to AICA riboside): 553 ± 46 nmol/g
- activity against HTL-induced seizures (HTL-induced seizures): improved anticonvulsant activity

- F (in vivo): 60%
- AUC (in vivo): 4900 ng·h/mL
- Cmax (in vivo): 5000 ng/mL
- Tmax (in vivo): 0.75 h
SMILES: CC(C)C(=O)OC[C@H]1O[C@@H](n2cnc(C(N)=O)c2N)[C@H](O)[C@@H]1O [Compound 10, 5'-isobutyryl-AICA riboside]

SMILES: NC(=O)c1ncn([C@@H]2O[C@H](COP(=O)(O)O)[C@@H](O)[C@H]2O)c1N [ZMP, AICA riboside-5'-monophosphate]
- pIC50 (FDPase [3]): 3.82
- pIC50 (FDPase [4]): 4.39
- pIC50 (FDPase [5]; Gerbil liver homogenate supernatant): 4.30
- pIC50 (FDPase [5]; Guinea Pig liver homogenate supernatant): 4.92
- pIC50 (FDPase [6]): 4.32
- pIC50 (FDPase [7]): 3.43
- pKi [8]: ~4.40
